Experimental data as given in patent publication EP0151577B1 (priority 1983, dated 1984).

What was measured:
[1] = tested on: souris; experiment: Anticonvulsant activity, pentylenetetrazol; format: in vivo; settings: 100 mg/kg i.p., 15 min after administration
[2] = tested on: souris; experiment: Tremor score in mice pretreated with a MAO inhibitor (Harmaline); format: in vivo; settings: 75 mg/kg S.C., 1 h after Harmaline 25 mg/kg P.O., 5 souris, scored 5 to 75 min
Protocol: Les conditions expérimentales étaient les suivantes:
Chez des souris prétraitées par un inhibiteur de la MAO (Harmaline 25 mg/kg/ P.O.), I'injection de 5HTP (1 heure après l'IMAO) entraîne l'apparition de tremblements plus ou moins généralisés, accompagnés ou non d'hyperactivité motrice et qui sont dus a I'accumulation de sérotonine non dégradée au niveau des récepteurs post-synaptiques cérébraux. On peut établir pour chaque souris une cotation chiffrée suivant l'intensité des symptômes observes au cours du temps (cotation toutes les 5 min. entre la 5ème et la 45ème min. après I'injection de 5 HTP puis toutes les 15 min. jusqu'à la 75ème min.).
On additionne en une score total tous les chiffres obtenus aux différents temps sur des lots de 5 ou 10 souris.
Les actions du 5 HTP ont été comparées a celles du DF-5HTP.

[3] = tested on: souris; experiment: General pharmacological profile: respiratory rate; format: in vivo; settings: for Cadence respira-toire: souris; for Cadence respiratoire: 100 mg/kg i.p., 15 min after administration, Tableau 3
Text: (§1) Activite motrice spontanée: MODIGH, K., Central and peripheral effects of 5-hydroxytryptophan on motor activity in mice. Psychopharmacologia (Berlin), 23, 48, 1972. Cadence respiratoire: […], S., and VALZELLI, L. Serotonin and cardiovascular system, Chapter 9, in "Serotonin", Elsevier Publ. Co. Amsterdam 1965.
COHEN, Y. and BLANCHARD, P. Influence de la chelation du calcium sur les effets tensionnels de la sérotonine chez le chien. J. Physiol., 52, 569,1960.
BRAUNWALD, E. Control of myocardial oxygen consumption: Physiologic and clinical considerations. Am. J. Cardiol., 27 (4), 416,1971.

[4] = tested on: souris; experiment: Pentobarbital sleeping time; format: in vivo
Protocol: (§4) Les mesures ont été faites a 15, 30 et 60 minutes après I'administration par voie intrapéritonéale (i.p.) a des souris.

[5] = tested on: souris; experiment: Inclined screen test (neurotoxicity); settings: 100 mg/kg i.p., 15 min after administration, Tableau 3
Protocol: as §4

[6] = tested on: Tension sanguine; experiment: Cardiovascular activity: blood pressure; format: in vivo
Text: (§2) Le protocole experimental était celui décrit dans "Sugar Derivatives of Indolamines. part V: Cardiovascular Effects and "Anti-stress" Activity of Desoxyfructose Derivative of Serotonin and 5-Metho-xy- tryptamin", L. Mester, M. Mester, K.P. Bhargava, C. Labrid, G. Dureng and M. Cheucle, THROMBOSIS […], 15,245,1979.

[7] = tested on: souris; experiment: General pharmacological profile: hypersensitivity to noise; settings: 100 mg/kg i.p., 15 min after administration, Tableau 3
Protocol: as §4

[8] = tested on: souris; experiment: Morphine test (antagonism); format: in vivo; settings: 100 mg/kg i.p., 15 min after administration
[9] = Acute toxicity, DL50 i.p.; format: in vivo, souris; settings: mouse, in vivo, ip, read-out: DL50 (ip)en toxicité aigue
Protocol: (§3) La valeur DL50 i.p. pour tous ces derives a été trouvée voisine de 800 mg/kg et la valeur DL 50 i.v. est supérieure a 5 g/kg.

[10] = tested on: réponse à l'obstruction de la carotide; experiment: Cardiovascular activity: response to carotid occlusion (CO); format: in vivo
Text: as §2

[11] = tested on: Rythme cardiaque; experiment: Cardiovascular activity: heart rate; format: in vivo
Text: as §2

[12] = tested on: souris; experiment: Catatonia; settings: 100 mg/kg i.p., 15 min after administration
[13] = tested on: souris; experiment: General pharmacological profile: defecation; settings: 100 mg/kg i.p., 15 min after administration, Tableau 3
Protocol: as §4

[14] = tested on: souris; experiment: Anti-stress activity: swimming endurance; format: in vivo; settings: 100 mg/kg i.p., souris observed up to 540 min; témoins 385 ± 31 min
Protocol: Au tableau 4, la lettre N designe le nombre d'animaux (souris). Un astérisque indique une activite importante. Deux astérisques indiquent une possibilité d'activité positive. Dans I'essai d'endurance a la nage, on a observe les souris jusqu'à 540 minutes, la durée moyenne de nage pour les souris témoins étant de 385 ± 31 minutes.
(N) - représente le nombre d'animaux * - activité importante ** - activite positive possible Pour I'endurance a la nage, les souris ont été observées jusqu'à 540 min, la durée moyenne de nage chez les souris témoins était de 385 + 31 min. *** - La leucocytose a été induite par 0,1 ml de lait (sous-cutanée) avant traitement avec le medicament.

[15] = tested on: souris; experiment: Vertical pole climbing test; format: in vivo; settings: 100 mg/kg i.p., 15 min after administration
[16] = tested on: souris; experiment: Anticonvulsant activity, MES; format: in vivo; settings: for Activité anticonvulsivante 1. MES: 100 mg/kg i.p., 15 min after administration, Tableau 3
Text: Activite anticonvulsivante (MES): % de protection Temps de sommeil au pentobarbital: WYATT, R.J., ZARKONE, V. […], K., DEMENT, W.C., SMYDER, F. and SJOERDSMA, A., Effects of 5-Hydroxytryptophan on the sleep of normal human subjects. Electroencephaly and Clinical Neurophysiology 30, 5051971.

[17] = tested on: souris; experiment: Rotarod test; settings: 100 mg/kg i.p.; témoin 11,3 ± 3,1
Protocol: as §4

[18] = tested on: souris; experiment: General pharmacological profile: spontaneous motor activity; format: in vivo
Text: as §1

[19] = tested on: cellules des neuroblastomes; experiment: Inhibition of serotonin incorporation into neuroblastoma cells in vitro; format: cell-based
[20] = tested on: M. Leprae; experiment: Incorporation of 3H-DOPA by M. leprae in vitro; format: cell-based, Mycobacterium leprae; settings: 6 h
Text: Le tableau 6 rassemble des résultats d'essai concernant l'activité du DF-5HTP sur l'incorporation de la DOPA dans les Mycobacteries de la lèpre. Le protocole experimental était celui décrit dans JAYARAMAN, P., […], P.R., MESTER, M. and MESTER, L. Inhibition of the incorporation of ^3H-DOPA in Mycobacterium leprae by Desoxyfructo-serotonin. Biochem. Pharm., 29, 2526,1980.
On a inoculé 5 x 10^6 M. leprae par tube; le milieu était un tampon phosphate à pH 6,8. La quantité de 3H-DOPA était de 1 µ. Ci/tube.
Protocole: Chaque tube de 0,5 ml est inocule de 5 x 10^6 M. leprae et de 1 µ Ci de ^3H-DOPA. Après 6 heures, I'incorporation de la DOPA radioactive est enregistrée en DPM selon la technique utilisée dans JAYARAMAN, P., […], P.R., MESTER, M. and MESTER, L. Inhibition of the Incorporation of ^3H-DOPA in Mycobacterium leprae by Desoxyfructo-serotonin. Biochem. Pharm., 29,2526,1980.

[21] = In vivo metabolism of radioactive compounds, hamster plasma; settings: au bout de 4 heures, figure 2
Text: La mesure de la radioactivite des diverses fractions isolées du sang des hamsters traités permet de caractériser les metabolites, lesquels sont ainsi isolés et identifies par électrophorèse. Les metabolites acides HIAA et IAA sont séparés ensemble.
On a porté le temps en abscisses (exprimé en heures) et en ordonnées le pourcentage du compose caractérisé dans le plasma.

[22] = tested on: souris; experiment: Acute toxicity, DL50 i.p.; format: in vivo
Protocol: as §3

[23] = tested on: souris; experiment: Motor activity (Photactametre); format: in vivo; settings: 100 mg/kg i.p., compared with 5HTP used as control
[24] = tested on: 5-HT (dans tout le cerveau); experiment: Amount of serotonin (5-HT) in whole brain, spectrophotofluorometric; format: in vivo, souris; settings: 160 mg/kg i.p., 15 min.; Solution Saline 60,0; mean of 4 souris
Text: Les quantités de sérotonine ont été estimees par une méthode spectrophotofluorométrique, telle que décrite par Solomon et al. Biochem. Pharmacology 14, 831 (1965). Les résultats de ces essais sont rassemblés dans le Tableau 10 ci-après.
• * Chaque valeur représente la moyenne de quatre animaux d'experience (souris) • ** La concentration de 5-HT est exprimée par gramme de tissu frais (cerveau).

[25] = 100 mg/kg (ip), 15 min, Tableau 2
[26] = 10 mg par voie cérébroventriculaire
[27] = 100 mg/kg i.p., 15 min after administration, Tableau 3

Compound: N[C@@H](Cc1c[nH]c2ccc(O)cc12)C(=O)O [5-HTP, 5-hydroxytryptophane, reference compound]
- Activité anticonvulsivante 2.Pentylènetetrazol [1]: 0%
- Score total (tremblements) [2]: 146
- Cadence respira-toire ([3]; 50 mg/kg (ip)): sans effet
- Cadence respira-toire ([3]; 100 mg/kg (ip), Tableau 2): augmentation
- Cadence respiratoire [3]: Légère augmentation
- Temps de sommeil au pentobarbital % du témoin (témoin =100) ([4]; 50 mg/kg (ip), 15 min): 285 % du témoin
- Temps de sommeil au pentobarbital % du témoin (témoin =100) ([4]; 50 mg/kg (ip), 30 min): 222 % du témoin
- Temps de sommeil au pentobarbital % du témoin (témoin =100) ([4]; 50 mg/kg (ip), 60 min): 136 % du témoin
- Temps de sommeil au pentobarbital % du témoin (témoin =100) [4, 25]: 295 % du témoin
- Temps de sommeil au pentobarbital % du témoin (témoin =100) ([4]; 100 mg/kg (ip), 30 min): 276 % du témoin
- Temps de sommeil au pentobarbital % du témoin (témoin =100) ([4]; 100 mg/kg (ip), 60 min): 279 % du témoin
- Tamis incliné [5]: Pas d'effet neurotoxique
- Tension sanguine Durée [6, 26]: 240 min
- Tension sanguine Mesure à [6, 26]: 1 min
- Tension sanguine Pic [6, 26]: 15 min
- Tension sanguine Durée ([6]; 100 mg par voie intraveineuse): 60 min
- Tension sanguine Mesure à ([6]; 100 mg par voie intraveineuse): 1 min
- Tension sanguine Pic ([6]; 100 mg par voie intraveineuse): 10 min
- Hypersensibilité au bruit [7]: oui
- Essai à la morphine [8]: Négatif (pas d'antagonisme)
- LD50 [9]: > 800 mg/kg
- REPONSE CO Durée [10, 26]: 105 min
- REPONSE CO Mesure à [10, 26]: 1 min
- REPONSE CO Pic [10, 26]: 10 min
- REPONSE CO Durée ([10]; 100 mg par voie intraveineuse): 45 min
- REPONSE CO Mesure à ([10]; 100 mg par voie intraveineuse): 5 min
- REPONSE CO Pic ([10]; 100 mg par voie intraveineuse): 15 min
- Rythme cardiaque Durée (min) [11, 26]: non mani-fes-tae jus-qu'à 240
- Rythme cardiaque Mesure à [11, 26]: 5 min
- Rythme cardiaque Pic [11, 26]: 30 min
- Rythme cardiaque Durée ([11]; 100 mg par voie intraveineuse): 60 min
- Rythme cardiaque Mesure à ([11]; 100 mg par voie intraveineuse): 1 min
- Rythme cardiaque Pic ([11]; 100 mg par voie intraveineuse): 30 min
- Catatonie [12]: non
- Défécation [13]: oui
- Endurance à la nage % d'augmentation [14]: 40^** %
- Essai de grimpé sur un baton vertical [15]: Sans effet
- Activité anticon-vulsivante MES % protection ([16]; 50 mg/kg (ip), 15 min): 20%
- Activité anticon-vulsivante MES % protection ([16]; 50 mg/kg (ip), 30 min): 25%
- Activité anticon-vulsivante MES % protection ([16]; 50 mg/kg (ip), 60 min): 25%
- Activité anticon-vulsivante MES % protection [16, 25]: 50%
- Activité anticon-vulsivante MES % protection ([16]; 100 mg/kg (ip), 30 min): 33,3%
- Activité anticonvulsivante 1. MES [16]: 60%
- Performance à l'essai Rotarod Moyenne (Sec) [17]: 66,2 ± 6,4 (30) Sec
- Activité motrice spontanée ([18]; 50 mg/kg (ip), souris): sans effet
- Activité motrice spontanée ([18]; 100 mg/kg (ip), souris, Tableau 2): d'abord légère augmentation et ensuite dimi-nution légère
- Activité motrice spontanée [18, 27]: Légère augmentation

Compound: désoxyfructo-sérotonine [DF-5HT, reference compound]
- % Inhibition à 0°C de l'incorporation de la sérotonine dans les cellules nerveuses ([19]; 0°C): 95%
- % Inhibition à 25°C de l'incorporation de la sérotonine dans les cellules nerveuses ([19]; 10-^4 Mol, 25°C): 90%
- incorporation de 3H-DOPA par M. Leprae ([20]; 1 µg/ml, Armadillo M.Leprae N°2275/5, témoins 5977): 2431 DPM
- incorporation de 3H-DOPA par M. Leprae ([20]; 1 µg/ml, Armadillo M.Leprae N°2275/5 Tués par la chaleur, témoins 915): 410 DPM
- incorporation de 3H-DOPA par M. Leprae ([20]; 1 µg/ml, Armadillo M.Leprae N°2457/103, témoins 4215): 2575 DPM
- incorporation de 3H-DOPA par M. Leprae ([20]; 1 µg/ml, Armadillo M.Leprae N°2457/103 Tués par la chaleur, témoins 2855): 2110 DPM
- incorporation de 3H-DOPA par M. Leprae ([20]; 5 µg/ml, Armadillo M.Leprae N°2275/5, témoins 5977): 2264 DPM
- incorporation de 3H-DOPA par M. Leprae ([20]; 5 µg/ml, Armadillo M.Leprae N°2275/5 Tués par la chaleur, témoins 915): 566 DPM
- incorporation de 3H-DOPA par M. Leprae ([20]; 5 µg/ml, Armadillo M.Leprae N°2457/103, témoins 4215): 1485 DPM
- incorporation de 3H-DOPA par M. Leprae ([20]; 5 µg/ml, Armadillo M.Leprae N°2457/103 Tués par la chaleur, témoins 2855): 1640 DPM
- niveau du compose non transformé dans le plasma [21]: insignifiante

Compound: désoxyribulo-5-hydroxytryptophane [Désoxy ribulo-5HTP]
- Activité anticonvulsivante 2.Pentylènetetrazol [1]: 0%
- Cadence respiratoire [3]: sans effet
- Temps de sommeil au pentobarbital % du témoin (Témoin à 100) [4, 27]: 309,2 % du témoin
- Essai à la morphine [8]: Négatif (pas d'antagonisme)
- DL50 (ip)en toxicité aigue [22]: > 800 mg/kg
- Activité motrice (Photactametre) [23]: Augmentation pendant les 40 premières min. et ensuite diminution
- Essai de grimpé sur un baton vertical [15]: Sans effet
- Activité anticonvulsivante 1. MES [16]: 20%
- Activité motrice spontanée [18, 27]: sans effet
- Quantités de 5-HT (dans tout le cerveau) [24]: 92,5
